# Results taken from patent publication EP2181998B1, “New benzothiazinone derivative and its use as antibacterial agent” (priority 2006, dated 2007).
# What was measured:
# [1] = in vivo; conditions: mouse
# [2] = tested on: Mycobacterium tuberculosis clinical isolate 6341; assay type: cell-based
# [3] = tested on: M. vaccae IMET 10 10670; assay type: cell-based
# [4] = tested on: Mycobacterium tuberculosis clinical isolate 6374; assay type: cell-based
# [5] = tested on: Mycobacterium tuberculosis H37Rv and clinical isolates 6341 and 6374; experiment: MIC and MBC, classical method, over several strains; assay type: cell-based
# [6] = tested on: Mycobacterium smegmatis SG 987; assay type: cell-based; conditions: Mycolicibacterium smegmatis, SG987; read-out: MIC M. smegmatis
# [7] = tested on: Mycobacterium tuberculosis H37Rv; experiment: Murine TB model (experimental hematogenously disseminated tuberculosis); assay type: in vivo, BALB/c line mice; conditions: for Injury index: daily 6 times per week, four-score scale, liver, spleen and lungs; for Efficacy index (%): 100% - injury index of group / injury index of control x 100; for right lung Culture, without dilution CFU / spleen Culture, without dilution CFU: 42 days after inoculation of the culture medium
# [8] = Toxicity after per os administration; conditions: mice
compound,measurement,setting,value
"CC1COC2(CCN(c3nc(=O)c4cc(C(F)(F)F)cc([N+](=O)[O-])c4s3)CC2)O1 (centres unmarked) [Compound 2, 2-(2-methyl-1,4-dioxa-8-azaspiro[4.5]dec-8-yl)-8-nitro-6-(trifluoromethyl)-1,3-benzothiazin-4-one]",LD50,[1],> 2000 mg/kg
same,MBC,[2],0.39 mg/L
same,MIC,[2],0.29 mg/L
same,MIC M.vaccae,[3],"0,76pg/ml"
same,MBC,[4],0.39 mg/L
same,MIC,[4],0.195 mg/L
same,MBC,[5]; read-out: MBC (µg/mL) mean,0.45 µg/mL
same,MIC,[5]; read-out: MIC (µg/mL) mean,0.29 µg/mL
same,MIC,[6],0.00156 mg/L
same,Injury index,[7]; 12 mg/kg orally,"2,1"
same,Efficacy index (%),[7]; 12 mg/kg orally,"44,7%"
same,"right lung Culture, without dilution CFU",[7]; 12 mg/kg orally,∼ 60 CFU
same,"spleen Culture, without dilution CFU",[7]; 12 mg/kg orally,∼ 60 CFU
same,Injury index,[7]; 25 mg/kg orally,"1,0"
same,Efficacy index (%),[7]; 25 mg/kg orally,78%
same,"right lung Culture, without dilution CFU",[7]; 25 mg/kg orally,∼ 35 CFU
same,"spleen Culture, without dilution CFU",[7]; 25 mg/kg orally,∼ 35 CFU
same,Survival of animals,"[7]; Group 3, 12 mg/kg oral, day of treatment 1, of 10 animals",10
same,Survival of animals,"[7]; Group 3, 12 mg/kg oral, day of treatment 2, of 10 animals",10
same,Survival of animals,"[7]; Group 3, 12 mg/kg oral, day of treatment 3, of 10 animals",10
same,Survival of animals,"[7]; Group 3, 12 mg/kg oral, day of treatment 4, of 10 animals",10
same,Survival of animals,"[7]; Group 3, 12 mg/kg oral, day of treatment 5, of 10 animals",10
same,Survival of animals,"[7]; Group 3, 12 mg/kg oral, day of treatment 6, of 10 animals",10
same,Survival of animals,"[7]; Group 3, 12 mg/kg oral, day of treatment 7, of 10 animals",10
same,Survival of animals,"[7]; Group 3, 12 mg/kg oral, day of treatment 8, of 10 animals",10
same,Survival of animals,"[7]; Group 3, 12 mg/kg oral, day of treatment 9, of 10 animals",10
same,Survival of animals,"[7]; Group 3, 12 mg/kg oral, day of treatment 10, of 10 animals",10
same,Survival of animals,"[7]; Group 3, 12 mg/kg oral, day of treatment 11, of 10 animals",10
same,Survival of animals,"[7]; Group 3, 12 mg/kg oral, day of treatment 12, of 10 animals",10
same,Survival of animals,"[7]; Group 3, 12 mg/kg oral, day of treatment 13, of 10 animals",10
same,Survival of animals,"[7]; Group 3, 12 mg/kg oral, day of treatment 14, of 10 animals",10
same,Survival of animals,"[7]; Group 3, 12 mg/kg oral, day of treatment 15, of 10 animals",10
same,Survival of animals,"[7]; Group 3, 12 mg/kg oral, day of treatment 16, of 10 animals",10
same,Survival of animals,"[7]; Group 3, 12 mg/kg oral, day of treatment 17, of 10 animals",10
same,Survival of animals,"[7]; Group 3, 12 mg/kg oral, day of treatment 18, of 10 animals",10
same,Survival of animals,"[7]; Group 3, 12 mg/kg oral, day of treatment 19, of 10 animals",10
same,Survival of animals,"[7]; Group 3, 12 mg/kg oral, day of treatment 20, of 10 animals",10
same,Survival of animals,"[7]; Group 3, 12 mg/kg oral, day of treatment 21, of 10 animals",10
same,Survival of animals,"[7]; Group 3, 12 mg/kg oral, day of treatment 22, of 10 animals",10
same,Survival of animals,"[7]; Group 3, 12 mg/kg oral, day of treatment 23, of 10 animals",10
same,Survival of animals,"[7]; Group 3, 12 mg/kg oral, day of treatment 24, of 10 animals",10
same,Survival of animals,"[7]; Group 3, 12 mg/kg oral, day of treatment 25, of 10 animals",10
same,Survival of animals,"[7]; Group 3, 12 mg/kg oral, day of treatment 26, of 10 animals",10
same,Survival of animals,"[7]; Group 3, 12 mg/kg oral, day of treatment 27",100%
same,Survival of animals,"[7]; Groups 4/5, 25 mg/kg oral, day of treatment 1, of 10 animals",10
same,Survival of animals,"[7]; Groups 4/5, 25 mg/kg oral, day of treatment 2, of 10 animals",10
same,Survival of animals,"[7]; Groups 4/5, 25 mg/kg oral, day of treatment 3, of 10 animals",10
same,Survival of animals,"[7]; Groups 4/5, 25 mg/kg oral, day of treatment 4, of 10 animals",10
same,Survival of animals,"[7]; Groups 4/5, 25 mg/kg oral, day of treatment 5, of 10 animals",10
same,Survival of animals,"[7]; Groups 4/5, 25 mg/kg oral, day of treatment 6, of 10 animals",10
same,Survival of animals,"[7]; Groups 4/5, 25 mg/kg oral, day of treatment 7, of 10 animals",10
same,Survival of animals,"[7]; Groups 4/5, 25 mg/kg oral, day of treatment 8, of 10 animals",10
same,Survival of animals,"[7]; Groups 4/5, 25 mg/kg oral, day of treatment 9, of 10 animals",10
same,Survival of animals,"[7]; Groups 4/5, 25 mg/kg oral, day of treatment 10, of 10 animals",10
same,Survival of animals,"[7]; Groups 4/5, 25 mg/kg oral, day of treatment 11, of 10 animals",10
same,Survival of animals,"[7]; Groups 4/5, 25 mg/kg oral, day of treatment 12, of 10 animals",10
same,Survival of animals,"[7]; Groups 4/5, 25 mg/kg oral, day of treatment 13, of 10 animals",10
same,Survival of animals,"[7]; Groups 4/5, 25 mg/kg oral, day of treatment 14, of 10 animals",10
same,Survival of animals,"[7]; Groups 4/5, 25 mg/kg oral, day of treatment 15, of 10 animals",10
same,Survival of animals,"[7]; Groups 4/5, 25 mg/kg oral, day of treatment 16, of 10 animals",10
same,Survival of animals,"[7]; Groups 4/5, 25 mg/kg oral, day of treatment 17, of 10 animals",10
same,Survival of animals,"[7]; Groups 4/5, 25 mg/kg oral, day of treatment 18, of 10 animals",10
same,Survival of animals,"[7]; Groups 4/5, 25 mg/kg oral, day of treatment 19, of 10 animals",10
same,Survival of animals,"[7]; Groups 4/5, 25 mg/kg oral, day of treatment 20, of 10 animals",10
same,Survival of animals,"[7]; Groups 4/5, 25 mg/kg oral, day of treatment 21, of 10 animals",10
same,Survival of animals,"[7]; Groups 4/5, 25 mg/kg oral, day of treatment 22, of 10 animals",10
same,Survival of animals,"[7]; Groups 4/5, 25 mg/kg oral, day of treatment 23, of 10 animals",10
same,Survival of animals,"[7]; Groups 4/5, 25 mg/kg oral, day of treatment 24, of 10 animals",10
same,Survival of animals,"[7]; Groups 4/5, 25 mg/kg oral, day of treatment 25, of 10 animals",10
same,Survival of animals,"[7]; Groups 4/5, 25 mg/kg oral, day of treatment 26, of 10 animals",10
same,Survival of animals,"[7]; Groups 4/5, 25 mg/kg oral, day of treatment 27",100%
same,mice survived,"[7]; murine model of tuberculosis infection, all control animals died until day 33",100%
same,toxicity,[8]; doses ranging up to 2000 mg/kg,non toxic
same,animal death,"[8]; doses up to 2000 mg/kg, during 7 days of investigations",no cases of animal death
